Tests used:
Format in all cases: in vivo
[1] = system: green foxtail (Setaria viridis, SETVI); experiment: Pre-emerge greenhouse herbicide test, phytotoxicity rating; settings: Setaria viridis, pre-emergence, 336 h, 14 days after application, rating scale 0-100; for pest or weed control at 125 g/ha: Rate 125 g al/ha; for pest or weed control at 500 g/ha: Rate 500 g al/ha
In short: (§1)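 Seeds sown in sandy loam one day before track-sprayer application of acetone solutions at 125–1000 g ai/ha (187 l/ha), then surface-watered to incorporate and bottom-watered. Injury scored visually at 14 days on a 0–100 scale (0 no damage, 100 complete death).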

[2] = system: ivyleaf morningglory (Ipomoea hederacea, IPOHE); experiment: as above; settings: Ipomoea, pre-emergence, 336 h, 14 days after application, rating scale 0-100; for pest or weed control at 125 g/ha: Rate 125 g al/ha; for pest or weed control at 500 g/ha: Rate 500 g al/ha
In short: as §1

[3] = system: lambsquarters (Chenopodium album, CHEAL); experiment: as above; settings: Chenopodium album, pre-emergence, 336 h, 14 days after application, rating scale 0-100; for pest or weed control at 125 g/ha: Rate 125 g al/ha; for pest or weed control at 500 g/ha: Rate 500 g al/ha
In short: as §1

[4] = system: large crabgrass (Digitaria sanguinalis, DIGSA); experiment: as above; settings: Digitaria sanguinalis, pre-emergence, 336 h, 14 days after application, rating scale 0-100; for pest or weed control at 125 g/ha: Rate 125 g al/ha; for pest or weed control at 500 g/ha: Rate 500 g al/ha
In short: as §1

[5] = system: redroot pigweed (Amaranthus retroflexus, AMARE); experiment: as above; settings: Amaranthus retroflexus, pre-emergence, 336 h, 14 days after application, rating scale 0-100; for pest or weed control at 125 g/ha: Rate 125 g al/ha; for pest or weed control at 500 g/ha: Rate 500 g al/ha
In short: as §1

[6] = system: velvetleaf (Abutilon theophrasti, ABUTH); experiment: as above; settings: Abutilon theophrasti, pre-emergence, 336 h, 14 days after application, rating scale 0-100; for pest or weed control at 125 g/ha: Rate 125 g al/ha; for pest or weed control at 500 g/ha: Rate 500 g al/ha
In short: as §1

[7] = system: Johnsongrass (Sorghum halepense, SORHA); experiment: Post-emerge greenhouse herbicide test, phytotoxicity rating; settings: Sorghum halepense, post-emergence, 336 h, 14 days after application, scale 0-100; for pest or weed control at 63 g/ha: rate 63 g ai/ha; for pest or weed control at 500 g/ha: rate 500 g ai/ha
In short: (§2)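 Plants at the 2-3 leaf stage, sown 8-21 days earlier, were track-sprayed post-emergence with compound in acetone plus 0.25% v/v non-ionic surfactant at 63-1000 g ai/ha (187 l/ha). Damage was rated at 14 days on a 0-100 scale (0 none, 100 all plants dead), for both crop injury and weed control.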

[8] = system: barnyardgrass (Echinochloa crusgalli, ECHCG); experiment: as above; settings: Echinochloa crus-galli, post-emergence, 336 h, 14 days after application, scale 0-100; for pest or weed control at 63 g/ha: rate 63 g ai/ha; for pest or weed control at 500 g/ha: rate 500 g ai/ha
In short: as §2

[9] = system: green foxtail (Setaria viridis, SETVI); experiment: as above; settings: Setaria viridis, post-emergence, 336 h, 14 days after application, scale 0-100; for pest or weed control at 63 g/ha: rate 63 g ai/ha; for pest or weed control at 500 g/ha: rate 500 g ai/ha
In short: as §2

[10] = system: ivyleaf morningglory (Ipomoea hederacea, IPOHE); experiment: as above; settings: Ipomoea, post-emergence, 336 h, 14 days after application, scale 0-100; for pest or weed control at 63 g/ha: rate 63 g ai/ha; for pest or weed control at 500 g/ha: rate 500 g ai/ha
In short: as §2

[11] = system: lambsquarters (Chenopodium album, CHEAL); experiment: as above; settings: Chenopodium album, post-emergence, 336 h, 14 days after application, scale 0-100; for pest or weed control at 63 g/ha: rate 63 g ai/ha; for pest or weed control at 500 g/ha: rate 500 g ai/ha
In short: as §2

[12] = system: large crabgrass (Digitaria sanguinalis, DIGSA); experiment: as above; settings: Digitaria sanguinalis, post-emergence, 336 h, 14 days after application, scale 0-100; for pest or weed control at 63 g/ha: rate 63 g ai/ha; for pest or weed control at 500 g/ha: rate 500 g ai/ha
In short: as §2

[13] = system: redroot pigweed (Amaranthus retroflexus, AMARE); experiment: as above; settings: Amaranthus retroflexus, post-emergence, 336 h, 14 days after application, scale 0-100; for pest or weed control at 63 g/ha: rate 63 g ai/ha; for pest or weed control at 500 g/ha: rate 500 g ai/ha
In short: as §2

[14] = system: sicklepod (Cassia obtusifolia, CASOB); experiment: as above; settings: Senna obtusifolia, post-emergence, 336 h, 14 days after application, scale 0-100; for pest or weed control at 63 g/ha: rate 63 g ai/ha; for pest or weed control at 500 g/ha: rate 500 g ai/ha
In short: as §2

[15] = system: velvetleaf (Abutilon theophrasti, ABUTH); experiment: as above; settings: Abutilon theophrasti, post-emergence, 336 h, 14 days after application, scale 0-100; for pest or weed control at 63 g/ha: rate 63 g ai/ha; for pest or weed control at 500 g/ha: rate 500 g ai/ha
In short: as §2

Row | SMILES | pest or weed control at 125 g/ha [1] [%] | pest or weed control at 500 g/ha [1] [%] | pest or weed control at 125 g/ha [2] [%] | pest or weed control at 500 g/ha [2] [%] | pest or weed control at 125 g/ha [3] [%] | pest or weed control at 500 g/ha [3] [%] | pest or weed control at 125 g/ha [4] [%] | pest or weed control at 500 g/ha [4] [%] | pest or weed control at 125 g/ha [5] [%] | pest or weed control at 500 g/ha [5] [%] | pest or weed control at 125 g/ha [6] [%] | pest or weed control at 500 g/ha [6] [%] | pest or weed control at 63 g/ha [7] [%] | pest or weed control at 500 g/ha [7] [%] | pest or weed control at 63 g/ha [8] [%] | pest or weed control at 500 g/ha [8] [%] | pest or weed control at 63 g/ha [9] [%] | pest or weed control at 500 g/ha [9] [%] | pest or weed control at 63 g/ha [10] [%] | pest or weed control at 500 g/ha [10] [%] | also measured
1 | Nn1c(C(F)(F)F)cc(=O)n(-c2cc(Oc3ccc(Cl)cn3)c(Cl)cc2F)c1=O [Compound 9-3, 1-Amino-3-[4-chloro-2-fluoro-5-(5-chloro-2-pyridyloxy)phenyl]-6-trifluoromethyl-1,2,3,4-tetrahydropyrimidine-2,4-dione] | 100 | 100 | 40 | 100 | 100 | 100 | 95 | 100 | 100 | 100 | 100 | 100 | 10 | 90 | 0 | 90 | 20 | 95 | 100 | 100 | pest or weed control at 63 g/ha [11]: 95%; pest or weed control at 500 g/ha [11]: 100%; pest or weed control at 63 g/ha [12]: 30%; pest or weed control at 500 g/ha [12]: 95%; pest or weed control at 63 g/ha [13]: 100%; pest or weed control at 500 g/ha [13]: 100%; pest or weed control at 63 g/ha [14]: 20%; pest or weed control at 500 g/ha [14]: 95%; pest or weed control at 63 g/ha [15]: 100%; pest or weed control at 500 g/ha [15]: 100%
2 | Nn1c(C(F)(F)F)cc(=O)n(-c2cc(Oc3ncccn3)c(Cl)cc2F)c1=O [Compound 9-16, 1-Amino-3-[4-chloro-2-fluoro-5-(2-pyrimidyloxy)phenyl]-6-trifluoromethyl-1,2,3,4-tetrahydropyrimidine-2,4-dione] | 100 | 100 | 100 | 100 | 100 | 100 | 100 | 100 | 100 | 100 | 100 | 100 | 100 | 100 | 100 | 100 | 100 | 100 | 100 | 100 | pest or weed control at 63 g/ha [11]: 100%; pest or weed control at 500 g/ha [11]: 100%; pest or weed control at 63 g/ha [12]: 100%; pest or weed control at 500 g/ha [12]: 100%; pest or weed control at 63 g/ha [13]: 100%; pest or weed control at 500 g/ha [13]: 100%; pest or weed control at 63 g/ha [14]: 100%; pest or weed control at 500 g/ha [14]: 100%; pest or weed control at 63 g/ha [15]: 100%; pest or weed control at 500 g/ha [15]: 100%

Source: patent publication US6479435B1, “Diaryl ethers and processes for their preparation and herbicidal and desiccant compositions containing them” (ISK Americas Incorporated, priority 1997, dated 2002)
